The values that follow come from patent US8969589B2, “Compounds acting at multiple prostaglandin receptors giving a general anti-inflammatory response” (Allergan, Inc., priority 2011, dated 2015).

The term Kb denotes the affinity of an antagonist, worked out from how it opposes an agonist. Higher therefore signals a less potent antagonist.

Holding throughout (assay type): cell-based
For experiment [1], the target named is T1, human prostanoid IP receptor (Homo sapiens, UniProt P43119).
T1 construct: expressed in transfected cells
The experiment in a line: FLIPR Ca2+ signaling PG antagonist assay, IP stable cell line. To be noted: antagonist Kb vs standard agonist Cicaprost; HEK-293 EBNA cells. The protocol: (§1) The above compounds were tested for PG antagonist activity as follows using human recombinant prostanoid receptor (DP1, EP1-4, FP, IP and TP) stable cell lines:
(§2) In order to measure the response of Gs and Gi coupled prostanoid receptors as a Ca^2+ signal, chimeric G protein cDNAs were used. Stable cell lines over-expressing human prostanoid DP1, EP1-4, FP, IP, and TP receptors were established as follows:
(§3) Briefly, human prostanoid DP1, EP2, and EP4 receptor cDNAs were co-transfected with chimeric Gqs cDNA containing a haemagglutanin (HA) epitope; human prostanoid EP3 receptors were co-transfected with chimeric Gqi-HA; human EP1, FP, IP, and TP receptor cDNAs were expressed with no exogenous G-proteins. Gqs and Gqi chimeric cDNAs (Molecular Devices, Sunnyvale, Calif., U.S.A.), as well as cDNAs of prostanoid receptors, were cloned into a pCEP4 vector with a hygromycin B selection marker. Transfection into HEK-293 EBNA (Epstein-Barr virus nuclear antigen) cells was achieved by the FuGENE 6 transfection Reagent (Roche Applied Science, Indianapolis, Ind., USA). Stable transfectants were selected according to hygromycin resistance. Because Gqs and Gqi contained an HA epitope, G-protein expression was detected by Western blotting analysis using anti-mouse HA monoclonal antibody and horseradish peroxidase (HRP)-conjugated secondary antibody, while functional expression of prostanoid receptors was detected by FLIPR screening (Matias et al., 2004). These stable cell lines were validated using previously published antagonists at 10 μM against serial dilutions of standard agonists by FLIPR functional assays for Ca^2− Signaling (as described below).
(§4) Ca^2+ signaling studies were performed using a FLIPR TETRA system (Molecular Devices, Sunnyvale, Calif., USA) in the 384-format. This is a high-throughput instrument for cell-based assays to monitor Ca^2+ signaling associated with GPCRs and ion channels. Cells were seeded at a density of 5×10^4 cells/well in BioCoat poly-D-lysine coated, black wall, clear bottom 384-well plates (BD Biosciences, Franklin lakes, N.J., USA) and allowed to attach overnight in an incubator at 37° C. The cells were then washed twice with HBSS-HEPES buffer (Hanks' balanced salt solution without bicarbonate and phenol red, 20 mM HEPES, pH 7.4) using an ELx405 Select CW Microplate Washer (BioTek, Winooski, Vt., USA). […] Cells were excited with LED (light emitting diode) excitation at 470-495 nm and emission was measured through an emission filter at 515-575 nm. Assay plates were read for 3.5 minutes using the FLIPR^TETRA. The peak increase in fluorescence intensity was recorded for each well. […]

In experiment [2] the target is T2, human prostanoid EP4 receptor (Homo sapiens, UniProt P35408).
T2 construct: expressed in transfected cells
In words: FLIPR Ca2+ signaling PG antagonist assay, EP4 stable cell line. To be noted: antagonist Kb vs standard agonist PGE2; HEK-293 EBNA cells with chimeric Gqs. The method, then: as §1, §2, §3, §4

The target in experiment [3] is T3, human prostanoid FP receptor (Homo sapiens, UniProt P43088).
T3 construct: expressed in transfected cells
The experiment in a line: FLIPR Ca2+ signaling PG antagonist assay, FP stable cell line. The settings on record: antagonist Kb vs standard agonist 17-phenyl-PGF2α; HEK-293 EBNA cells. The protocol: as §1, §2, §3, §4

Experiment [4] concerns the target T4, human prostanoid EP2 receptor (Homo sapiens, UniProt P43116).
T4 construct: expressed in transfected cells
In words: FLIPR Ca2+ signaling PG antagonist assay, EP2 stable cell line. To be noted: antagonist Kb vs standard agonist PGE2; HEK-293 EBNA cells with chimeric Gqs. The method, then:
as §1, §2, §3, §4

The target of experiment [5] is T5, human prostanoid EP1 receptor (Homo sapiens, UniProt P34995).
T5 construct: expressed in transfected cells
T5 sequence (P34995 1-402): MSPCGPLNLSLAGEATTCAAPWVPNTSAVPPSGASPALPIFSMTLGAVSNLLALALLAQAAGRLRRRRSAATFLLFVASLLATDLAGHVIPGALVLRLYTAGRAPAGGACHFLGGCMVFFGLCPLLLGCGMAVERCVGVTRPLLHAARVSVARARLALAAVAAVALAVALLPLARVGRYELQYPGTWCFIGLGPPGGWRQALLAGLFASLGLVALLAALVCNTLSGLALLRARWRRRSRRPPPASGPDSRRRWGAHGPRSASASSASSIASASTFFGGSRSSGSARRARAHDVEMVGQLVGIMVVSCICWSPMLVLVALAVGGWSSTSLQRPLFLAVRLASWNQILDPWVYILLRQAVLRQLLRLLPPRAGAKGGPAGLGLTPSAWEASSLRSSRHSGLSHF
In words: FLIPR Ca2+ signaling PG antagonist assay, EP1 stable cell line. The settings on record: antagonist Kb vs standard agonist PGE2; HEK-293 EBNA cells. The protocol:
as §1, §2, §3, §4

In experiment [6] the target is T6, human prostanoid TP receptor (Homo sapiens, UniProt P21731).
T6 construct: expressed in transfected cells
T6 sequence (P21731 1-343): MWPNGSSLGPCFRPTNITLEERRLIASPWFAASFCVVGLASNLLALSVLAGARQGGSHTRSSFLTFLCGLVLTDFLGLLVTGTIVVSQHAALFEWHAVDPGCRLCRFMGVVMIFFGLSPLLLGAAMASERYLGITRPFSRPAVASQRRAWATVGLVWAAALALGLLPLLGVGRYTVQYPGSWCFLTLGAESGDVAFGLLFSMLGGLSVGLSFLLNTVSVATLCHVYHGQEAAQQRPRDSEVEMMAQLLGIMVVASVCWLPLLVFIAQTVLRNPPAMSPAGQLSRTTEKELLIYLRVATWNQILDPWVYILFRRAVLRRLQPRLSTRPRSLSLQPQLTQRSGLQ
In words: FLIPR Ca2+ signaling PG antagonist assay, TP stable cell line. To be noted: antagonist Kb vs standard agonist U-46619; HEK-293 EBNA cells. The method, then: as §1, §2, §3, §4

Experiment [7] has as its target T7, human prostanoid DP1 receptor (Homo sapiens, UniProt Q13258).
T7 construct: expressed in transfected cells
T7 sequence (Q13258 1-359): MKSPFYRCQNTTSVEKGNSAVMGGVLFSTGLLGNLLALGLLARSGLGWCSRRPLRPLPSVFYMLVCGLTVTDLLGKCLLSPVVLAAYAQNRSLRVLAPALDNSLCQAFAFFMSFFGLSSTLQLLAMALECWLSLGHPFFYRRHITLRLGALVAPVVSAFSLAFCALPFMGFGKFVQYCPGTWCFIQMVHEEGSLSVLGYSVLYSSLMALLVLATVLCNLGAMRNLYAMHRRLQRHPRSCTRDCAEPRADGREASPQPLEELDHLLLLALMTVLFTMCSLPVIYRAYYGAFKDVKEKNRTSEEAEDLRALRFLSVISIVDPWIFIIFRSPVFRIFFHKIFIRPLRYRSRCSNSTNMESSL
In words: FLIPR Ca2+ signaling PG antagonist assay, DP1 stable cell line. To be noted: antagonist Kb vs standard agonist BW 245C; HEK-293 EBNA cells with chimeric Gqs. The protocol: as §1, §2, §3, §4

Experiment [8] has as its target T8, human prostanoid EP3 receptor (Homo sapiens, UniProt P43115).
T8 construct: expressed in transfected cells
T8 sequence (P43115 1-390): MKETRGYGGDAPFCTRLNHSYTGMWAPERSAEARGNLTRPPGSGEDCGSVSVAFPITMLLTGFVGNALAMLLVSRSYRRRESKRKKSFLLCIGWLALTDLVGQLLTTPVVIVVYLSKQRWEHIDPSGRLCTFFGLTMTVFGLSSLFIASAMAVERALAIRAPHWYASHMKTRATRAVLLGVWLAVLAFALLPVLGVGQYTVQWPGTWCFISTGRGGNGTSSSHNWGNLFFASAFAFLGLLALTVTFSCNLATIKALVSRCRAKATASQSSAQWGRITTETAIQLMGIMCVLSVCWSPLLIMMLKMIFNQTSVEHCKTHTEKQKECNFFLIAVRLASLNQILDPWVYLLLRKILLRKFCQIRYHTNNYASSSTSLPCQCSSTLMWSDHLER
The experiment in a line: FLIPR Ca2+ signaling PG antagonist assay, EP3 stable cell line. The settings on record: antagonist Kb vs standard agonist PGE2; HEK-293 EBNA cells with chimeric Gqi. The protocol: as §1, §2, §3, §4

T3 sequence (P43088 whole entry): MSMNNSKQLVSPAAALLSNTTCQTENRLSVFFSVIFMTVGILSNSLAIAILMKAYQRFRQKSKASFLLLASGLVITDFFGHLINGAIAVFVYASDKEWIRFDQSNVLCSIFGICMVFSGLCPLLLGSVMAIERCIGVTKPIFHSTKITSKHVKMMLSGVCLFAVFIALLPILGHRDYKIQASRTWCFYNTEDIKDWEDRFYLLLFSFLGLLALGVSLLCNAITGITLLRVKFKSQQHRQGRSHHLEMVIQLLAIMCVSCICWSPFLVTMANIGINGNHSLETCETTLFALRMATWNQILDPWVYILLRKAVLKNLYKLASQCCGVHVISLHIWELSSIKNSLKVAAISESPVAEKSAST
T4 sequence (P43116 whole entry): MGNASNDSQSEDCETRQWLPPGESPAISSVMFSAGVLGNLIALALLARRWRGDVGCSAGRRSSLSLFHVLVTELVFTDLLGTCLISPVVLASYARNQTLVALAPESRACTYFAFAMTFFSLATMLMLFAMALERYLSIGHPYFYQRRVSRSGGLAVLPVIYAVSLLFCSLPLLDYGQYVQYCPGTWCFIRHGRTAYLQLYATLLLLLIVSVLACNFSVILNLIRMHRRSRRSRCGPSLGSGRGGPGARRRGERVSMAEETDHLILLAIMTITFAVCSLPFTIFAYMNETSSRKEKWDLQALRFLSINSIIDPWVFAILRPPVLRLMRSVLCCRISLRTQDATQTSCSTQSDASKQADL
T1 sequence (P43119 whole entry): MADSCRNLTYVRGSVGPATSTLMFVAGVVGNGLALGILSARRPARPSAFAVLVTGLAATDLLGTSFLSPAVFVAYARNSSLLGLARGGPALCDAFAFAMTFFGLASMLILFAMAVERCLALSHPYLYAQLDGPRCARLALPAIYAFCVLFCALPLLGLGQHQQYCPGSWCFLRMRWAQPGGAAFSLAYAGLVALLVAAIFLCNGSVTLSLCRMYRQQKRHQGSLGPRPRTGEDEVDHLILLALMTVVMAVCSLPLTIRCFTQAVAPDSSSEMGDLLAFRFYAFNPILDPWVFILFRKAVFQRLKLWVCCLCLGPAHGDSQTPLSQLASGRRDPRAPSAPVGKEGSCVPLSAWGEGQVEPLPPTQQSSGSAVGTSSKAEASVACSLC
T2 sequence (P35408 whole entry): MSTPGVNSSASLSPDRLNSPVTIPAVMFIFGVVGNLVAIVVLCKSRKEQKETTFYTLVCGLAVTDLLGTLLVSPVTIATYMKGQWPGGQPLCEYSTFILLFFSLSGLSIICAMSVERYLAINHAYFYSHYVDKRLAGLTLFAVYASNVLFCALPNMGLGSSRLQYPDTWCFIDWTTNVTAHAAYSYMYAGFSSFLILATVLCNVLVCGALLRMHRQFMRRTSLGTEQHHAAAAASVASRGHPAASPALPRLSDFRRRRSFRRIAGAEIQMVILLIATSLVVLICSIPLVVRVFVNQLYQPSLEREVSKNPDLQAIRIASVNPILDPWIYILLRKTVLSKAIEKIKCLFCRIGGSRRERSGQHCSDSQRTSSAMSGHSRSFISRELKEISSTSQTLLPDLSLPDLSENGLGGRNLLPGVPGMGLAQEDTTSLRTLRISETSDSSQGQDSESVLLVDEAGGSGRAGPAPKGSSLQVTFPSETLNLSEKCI

Regarding `CCC(CC)COc1ccc(Cl)cc1Cn1nc(OCC(=O)O)cc1C` [Example 2, {1-[5-chloro-2-(2-ethyl-butoxy)-benzyl]-5-methyl-1H-pyrazol-3-yloxy}-acetic acid], the Kb in experiment [1] was 600 nM; in experiment [2] it was 350 nM; in experiment [3] it was 980 nM; in experiment [4], not below 10000 nM; in experiment [5], 75 nM; in experiment [7], 500 nM. The same compound displayed a Kb in experiment [8] not below 10000 nM. In experiment [6], the “TP (Kb)” value is given as “PAg”.
As for `Cc1cc(OCC(=O)O)nn1Cc1cc(Cl)ccc1OCc1ccc(Cl)cc1` [Example 3, {1-[5-chloro-2-(4-chloro-benzyloxy)-benzyl]-5-methyl-1H-pyrazol-3-yloxy}-acetic acid], the Kb in experiment [1] was 500 nM; in experiment [2] it was not below 10000 nM; in experiment [3], 220 nM; in experiment [4], 340 nM; in experiment [5], 9 nM; in experiment [6], 1 nM. Moreover, the antagonist equilibrium constant (Kb) in experiment [7] was found to be 1000 nM; in experiment [8], 3700 nM.
`Cc1cc(OCC(=O)O)nn1Cc1cc(Cl)ccc1OCC(C)C` [Example 4, [1-(5-chloro-2-isobutoxy-benzyl)-5-methyl-1H-pyrazol-3-yloxy]-acetic acid]: the Kb in experiment [1] is not below 10000 nM; in experiment [2] it was not below 10000 nM; in experiment [3] it was 1700 nM; in experiment [4], not below 10000 nM; in experiment [5], 110 nM; in experiment [6], 15 nM. Besides, in experiment [8], the Kb was not below 10000 nM. In addition, the “DP1 (Kb)” value in experiment [7] was “PAg”.
Turning to `CCC(CC)COc1ccc(Br)cc1Cn1nc(OCC(=O)O)cc1C` [Example 1, {1-[5-bromo-2-(2-ethyl-butoxy)-benzyl]-5-methyl-1H-pyrazol-3-yl}-oxaacetic acid], the Kb is 220 nM in experiment [1]; 130 nM in experiment [2]; 250 nM in experiment [3]; not below 10000 nM in experiment [4]; 40 nM in experiment [5]; 2 nM in experiment [6]. Also, the antagonist dissociation constant (Kb) in experiment [7] was 640 nM; in experiment [8], not below 10000 nM.
